Data on one compound can be found in patent US20220142958A1, “MEDICINAL COMPOSITION HAVING EXCELLENT STABILITY” (EA Pharma Co., Ltd., priority 2019, published 2022).

What all share (assay type): in vivo, rat
The test system of one data set is serum iPTH concentration. The data set is described as follows: Serum iPTH concentration in bilaterally nephrectomized rats after single intravenous administration. From the text: (§1) After quarantine and acclimatization periods of 6 days, fifty-one rats (Crl: CD (SD), male) aged 7 weeks were fed a 100% sucrose diet ad libitum from four days before the surgery. On the day of the surgery, skin incisions were made on the back at the sites of the right and left kidneys under isoflurane anesthesia and the renal capsules were removed to ligate the renal arteries and veins and the ureters using threads before removing the right and left kidneys. A penicillin solution was given upon suturing, and 5 mL of physiological saline was intraperitoneally administered before returning the rats into the breeding cages.
(§2) On the day of administering the test substance, for example, a day after the bilaterally nephrectomy, approximately 100 μL of blood was collected from the tail vein without anesthesia using a capillary tube, which was centrifuged in a high speed refrigerated microcentrifuge (10,000 rpm, 5 min, 4° C.) to separate the serum. Thereafter, the serum Ca concentration was measured with a dri-chemanalyzer (model number: FUJI DRI-CHEM 7000, manufacturer: FUJI FILM Medical Co., Ltd.) to select individuals with a serum Ca concentration of 8.0 mg/dL or more and less than 14.0 mg/dL.
(§3) On a day after the bilaterally nephrectomy, the given doses were calculated based on the weight of the selected animals on that day. Group 1 was given a medium (physiological saline), Groups 2, 3 and 4 were given the Compound A1 solution (0.3, 3 and 30 mg/mL, respectively), and Groups 5, 6, 7 and 8 (5 rats per group) were given the comparative compound (0.3, 1, 3 and 10 mg/mL, respectively), each given a single dose of 1 ml/kg from the tail vein. Prior to the administration (0 hours), and 24 and 48 hours after the administration, approximately 300 μL of blood was collected without anesthesia from the tail vein using capillary tubes for obtaining the serum. The blood for obtaining the serum was left to stand at room temperature, and centrifuged in a high speed refrigerated microcentrifuge (10,000 rpm, 5 min, 4° C.) within a period of 30 minutes to 2 hours after the blood collection to collect the serum.
(§4) Thereafter, the serum Ca was analyzed with COBAS analyzer (Model number: COBAS INTEGRA 400 plus, manufacturer: Roche Diagnostics K.K.), and the remaining serum was stored in an ultra-low freezer (temperature set to −80±15° C.) until the day of iPTH measurement. On the day of iPTH measurement, the serum was melted at room temperature for measurement.
(§5) A 30 mg/ml Compound A1 solution ([…] of Compound A1 dissolved in 10 ml of physiological saline) was diluted with physiological saline to prepare 0.3 mg/ml and […] Compound A1 solutions.
(§6) 149 mg of etelcalcetide (Ac-c(C) arrrar-NH2) TFA salt (WO 2011/014707 A) was prepared to have pH of 6 to 8 with 7 ml of physiological saline and a 0.5N aqueous NaOH solution, and physiological saline was further added thereto to make 10 ml. The prepared 10 mg/ml comparative compound solution was diluted with physiological saline to obtain 0.3 mg/ml and 1 mg/ml comparative compound solutions.

A short description of data set [1]: Estimated plasma concentration in bilaterally nephrectomized rats. Conditions: 48 hours after single intravenous administration at 3 mg/kg.
In the next data set the test system is serum Ca concentration. The data set is described as follows: Serum Ca concentration in bilaterally nephrectomized rats after single intravenous administration.
Description: as §1, §2, §3, §4, §5, §6

Data set [2] concerns bilaterally nephrectomized rats. The data set is described as follows: Survival of bilaterally nephrectomized rats after single doses. Conditions: for number of rats surviving (of five per group): 48 hours after the administration.
Description: as §1, §3

[3] abbreviates: 0.3 mg/kg single i.v., 24 hours after the administration.
Setting [4] is: 0.3 mg/kg single i.v., 48 hours after the administration.
Setting [5] is: 1 mg/kg single i.v., 24 hours after the administration.
Setting [6] is: 1 mg/kg single i.v., 48 hours after the administration.
Where [7] appears, read: 3 mg/kg single i.v., 24 hours after the administration.
The mark [8] stands for this setting: 3 mg/kg single i.v., 48 hours after the administration.
Where [9] appears, read: 10 mg/kg single i.v., 24 hours after the administration.
The mark [10] stands for this setting: 10 mg/kg single i.v., 48 hours after the administration (n=1).
[11] abbreviates: logistic curve fitting, 48 hours after the administration vs given dose.

Turning to `CC(=O)N[C@H](CSSC[C@H](N)C(=O)O)C(=O)N[C@H](C)C(=O)N[C@H](CCCNC(=N)N)C(=O)N[C@H](CCCNC(=N)N)C(=O)N[C@H](CCCNC(=N)N)C(=O)N[C@H](C)C(=O)N[C@H](CCCNC(=N)N)C(N)=O` [comparative compound, etelcalcetide], the mean serum iPTH concentration in the data set with serum iPTH concentration (setting [3]) was found to be 122 pg/mL; in the data set on serum iPTH concentration (setting [4]) it was 510 pg/mL; in the data set with serum iPTH concentration (setting [5]) it was 52 pg/mL; in the data set with serum iPTH concentration (setting [6]), 280 pg/mL; with serum iPTH concentration (setting [7]), 22 pg/mL; in the data set on serum iPTH concentration (setting [8]) it was 41 pg/mL. The mean serum iPTH concentration with serum iPTH concentration (setting [9]) was 104 pg/mL; in the data set with serum iPTH concentration (setting [10]) it was 230 pg/mL. In addition, the “lower limit value of the serum iPTH concentration (simulated)” value in the data set with serum iPTH concentration (setting [11]) is 48.18 pg/mL. Further, the “50% effective concentration, EC50 value, for decreasing the serum iPTH concentration” value in the data set on serum iPTH concentration (plasma concentration, rats) stood at 0.04 µg/mL. The “decrease of serum iPTH and Ca concentrations” value in the data set on serum iPTH concentration (renal failure rat models, during 48 hours after the administration, relation to dose) is “in a dose-dependent manner”. In addition, in data set [1], the “plasma concentration (estimated)” value was 130 ng/mL. The “mean serum Ca concentration” value with serum Ca concentration (setting [3]) worked out at 8.33 mg/dL; in the data set on serum Ca concentration (setting [4]) it was 10.44 mg/dL; with serum Ca concentration (setting [5]), 6.42 mg/dL; in the data set on serum Ca concentration (setting [6]), 7.33 mg/dL; in the data set on serum Ca concentration (setting [7]), 6.82 mg/dL; in the data set on serum Ca concentration (setting [8]), 5.85 mg/dL. Also, the “mean serum Ca concentration” value came out at 6.95 mg/dL with serum Ca concentration (setting [9]) and 6.65 mg/dL in the data set with serum Ca concentration (setting [10]). In addition, in the data set on serum Ca concentration (setting [11]), the “lower limit value of the serum Ca concentration (simulated)” value was 5.880 mg/dL. The results for the “number of rats surviving (of five per group)” value in data set [2] (3 mg/kg group) and in data set [2] (10 mg/kg group) were “four” and “one”, respectively. Also, the “number of dead rats” value in data set [2] (relation to dose) is “increased in a dose-dependent manner”.
